Bounds are passed on as bounds.

The text below walks through data of ChEMBL document CHEMBL5728686, “MK2 inhibitors and uses thereof” (2021).

This assay concerns the target MAP kinase-activated protein kinase 2 (Homo sapiens, UniProt P49137). Put plainly: Kinase reactions were started with the addition of 40 μL of MK-2 enzyme and monitored every 71 seconds for 30-240 minutes at λex360/λem485 in a Synergy2, Synergy4 or Synergy H4 plate reader from BioTek (Winooski, Vt.). […] Initial velocity (0 minutes to +30 minutes) from each reaction was estimated from the slope of a plot of relative fluorescence units vs time (minutes) and normalized to the no enzyme and no inhibitor control groups for % Inhibition. The resulting % Inhibition values were then plotted against inhibitor concentration to estimate IC50 from log[Inhibitor] vs Response, Variable Slope model in GraphPad Prism from GraphPad Software (San Diego, Calif.).

MAP kinase-activated protein kinase 2, sequence (P49137 whole entry): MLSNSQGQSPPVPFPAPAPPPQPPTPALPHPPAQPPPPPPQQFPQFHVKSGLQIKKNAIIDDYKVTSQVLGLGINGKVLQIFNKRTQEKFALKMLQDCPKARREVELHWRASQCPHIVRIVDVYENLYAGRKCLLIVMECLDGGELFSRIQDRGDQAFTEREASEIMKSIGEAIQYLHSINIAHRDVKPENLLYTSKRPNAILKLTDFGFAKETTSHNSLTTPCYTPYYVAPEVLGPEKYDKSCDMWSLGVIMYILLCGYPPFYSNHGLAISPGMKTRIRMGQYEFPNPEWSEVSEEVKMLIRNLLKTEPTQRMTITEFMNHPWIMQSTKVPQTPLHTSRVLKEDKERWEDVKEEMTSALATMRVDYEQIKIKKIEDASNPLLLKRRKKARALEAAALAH

Regarding `C=CC(=O)Nc1cc(NC(=O)c2ccc3sc4c(c3c2)NC[C@@H](C)NC4=O)ccc1C1CCN(C)CC1`, the EC50 was below 100 nM and the IC50 is below 100 nM.

Regarding `C=CC(=O)N1CCOc2ccc(-c3cc4c(cn3)CCc3c-4[nH]c4c3C(=O)NCC4)cc21`, the half-maximal inhibitory concentration (IC50) is below 100 nM.

For `C=CC(=O)Nc1cc(-c2cc3c(ccc4c5c([nH]c43)CCC5=O)cn2)ccc1C`, the EC50 is below 100 nM and the half-maximal inhibitory concentration (IC50) was below 100 nM.
